No end group written: not given here.
Columns and labels:
SH-SY5Y cells [1] = experiment: Inhibition of ROS production (DCFH-DA fluorescence); type: cell-based, human; details: hydrogen peroxide alone, 30 minutes; control 102% or less
Protocol: (§1) The incubator was maintained at a temperature of 37° C., and a mixed gas of 95% air and 5% CO2 was continuously supplied thereto to provide suitable conditions for cell culture. The cells were cultured in a 6-well plate or a 96-well plate at each of densities of 1×10^6 and 2×10^4 cells/well 24 hours before the experiment. […] Sulfuretin was used in ethanol and used at a final concentration of 0.1% or less.
In order to measure ROS elimination activity, cells were labeled with DCFH-DA fluorescence, and quantitative analysis was performed using a fluorescence meter.
Specifically, the 6-well plate in which the cells have been cultured was pretreated with sulfuretin for 2 hours, and then reacted with hydrogen peroxide for 30 minutes to induce ROS. Then, 10 μl of 10 mM DCFH-DA was added to the plate and allowed to react with the cells for 30 minutes. Herein, DCFH-DA in the incubator was covered with a foil such that it would not be exposed to light. The cells that reacted with the DCFH-DA fluorescent substance were detached using cold PBS and centrifuged at 400 g for 3 minutes. The centrifugation process was repeated twice to wash the fluorescent substance. The washed cells were briefly stirred with 1 ml of PBS, and 100 μl was dispensed into each of a fresh 96-well plate. Then, fluorescence was measured at an excitation wavelength of 488 nm and an emission wavelength of 515 nm using a fluorescence meter (Perkinelmer, USA).
The measured value was substituted into the following equation to calculate ROS production:
ROS production (%)=[(O.D. of control−O.D. of test group)/O.D. of control]×100

in vitro = details: human
Protocol: as §1
To measure cell viability, an MTT reduction assay was used. An MTT solution was added to each well of the 96-well plate (in which the cells have been cultured) to a final concentration of 0.5 mg/ml. The plate was incubated in an incubator for 2 hours, and the medium and the MIT solution were removed, after which DMSO was added thereto and stirred. When DMSO was completely dissolved, the UV absorbance at 540 nm was measured using a microplate reader (Molecular device, USA).
The measured absorbance was substituted into the following equation to calculate cell viability:
Cell viability (%)=[(O.D. of control−O.D. of test group)/O.D. of control]×100

SH-SY5Y cells [2] = experiment: Inhibition of intracellular [Ca2+] influx (Fura-2-AM fluorescence); type: cell-based, human; details: hydrogen peroxide alone, 30 minutes; normal control 281 nM or less
Protocol: as §1
In order to measure inhibitory effects on intracellular [Ca^2+] influx caused by oxidative stress, cells were labeled with Fura-2-AM fluorescence, and quantitative analysis was carried out using a fluorescence meter. Specifically, 10 μl of 5 μM Fura-2-AM was added to each well of the 6-well plate (in which the cells have been cultured) and then allowed to react for 30 minutes. Herein, Fura-2-AM in the incubator was covered with a silver foil such that it would not be exposed to light. After completion of the incubation, the plate was pretreated with sulfuretin for 30 minutes, and then reacted with hydrogen peroxide for 30 minutes to induce the intracellular influx of [Ca^2+]. Then, the cells that reacted with the Fura-2-AM fluorescent substance were washed twice with cold HEPES and detached with HEPES. Then, the cells were centrifuged at 400 g for 3 minutes. The supernatant was removed carefully, stirred weakly with 0.5 ml of HEPES buffer, and then 150 μl was dispensed into each well of a fresh 96-well plate. The fluorescence of the sample dispensed into the fresh 96-well plate was measured at an excitation wavelength of […] and an emission wavelength of 520 nm using a fluorescence meter (Perkinelmer, USA).
The measured value was substituted into the following equation to calculate intracellular [Ca^2+] nM: […]

SH-SY5Y cells [3] = experiment: Inhibition of mitochondrial membrane potential (MMP) damage (rhodamine-123); type: cell-based, human; details: hydrogen peroxide alone, 30 minutes; normal control 99% or less
Protocol: as §1
In order to measure the inhibition of MMP damage, cells were labeled with rhodamine-123 fluorescence, and quantitative analysis was performed using a fluorescence meter. Specifically, the 6-well plate in which the cells have been cultured was pretreated with sulfuretin for 30 minutes and then reacted with hydrogen peroxide for 30 minutes to induce MMP damage. Then, 10 μl of 10 μM rhodamine-123 was added to each well of the plate and allowed to react for 30 minutes. Herein, rhodamine-123 in the incubator was covered with a silver foil such that it would not be exposed to light. The cells that reacted with the rhodamine-123 fluorescent substance were detached with cold PBS and centrifuged at 400 g for 3 minutes. The centrifugation process was repeated twice to wash the fluorescent substance. The washed cells were stirred briefly with 0.5 ml of PBS, and 100 μl was dispensed into each well of a fresh 96-well plate. The fluorescence of the cells was measured at an excitation wavelength of 480 nm and an emission wavelength of 530 nm using a fluorescence meter (Perkinelmer, USA).
The measured fluorescence was substituted into the following equation to calculate ΔΨm:
ΔΨm(%)=[(O.D. of control−O.D. of test group)/O.D. of control]×100

PARP = experiment: Western blot, PARP expression; type: cell-based, human; details: SH-SY5Y cells; hydrogen peroxide alone, 24 hours; normal control 100%
Protocol: as §1
(§2) In order to identify the effect of sulfuretin on the expression of proteins related to dementia, Alzheimer's disease, Parkinson's disease and strokes, a Western blot test was carried out.
(§3) After 24 hours, the supernatant of each well was collected and centrifuged at 400 g for 3 minutes, and the cells were washed with cold PBS and lysed with 100 μl of T-PER lysis buffer (Thermo, USA) for 30 minutes. The lysates were centrifuged at 10000 g at 4° C. for 15 minutes, and the supernatants were stored at […] until use as test samples. Proteins were quantitatively analyzed using a BCA assay kit (Thermo, USA) and separated within 8.5-12% SDS gel and then transferred to PVDF membranes. To examine the expression of the proteins, the development of fluorescence was analyzed by enhanced chemiluminescence (ECL). Specifically, the membrane was blocked with 5% skimmed non-fat milk for 1 hour and labeled with the primary antibodies, PARP, caspase-3, phospho-p38, phospho-JNK and β-actin at 4° C. overnight. Then, the membrane was washed three times with Tris-tween buffered saline (TTBS), and then labeled with horseradish peroxidase (HRP)-conjugated anti-rabbit and anti-mouse secondary antibodies at room temperature for 1 hour. Then, the membrane was washed five times with TTBS for 10 minutes. The washed film was developed by ECL using x-ray films, and concentrations were quantitatively analyzed using quantitative analysis program (Fujifilm, Japan).

phospho-p38 = experiment: Western blot, phospho-p38 expression; type: cell-based, human; details: SH-SY5Y cells; hydrogen peroxide alone, 24 hours; normal control 100%
Protocol: as §1, §2, §3

phospho-JNK = experiment: Western blot, phospho-JNK expression; type: cell-based, human; details: SH-SY5Y cells; hydrogen peroxide alone, 24 hours; normal control 100%
Protocol: as §1, §2, §3

SH-SY5Y cells [4] = experiment: LDH secretion (cytotoxicity) test; type: cell-based, human
Protocol: as §1
To measure LDH secretion (cytotoxicity), an LDH cytotoxicity assay kit was used. 50 μl of the medium was taken from each well of the 96-well plate (in which the cells have been cultured) and dispensed into each well of a fresh 96-well plate, and 50 μl of a reaction reagent was added to each well, after which the plate was shielded from light. The plate was incubated in an incubator for 30 minutes, and the UV absorbance at 490 nm was measured using a microplate reader (Molecular device, USA).
The measured absorbance was substituted into the following equation to calculate LDH secretion:
LDH secretion (%)=(LDH secretion O.D. in medium/total LDH secretion O.D.)×100

caspase-3 = experiment: Western blot, caspase-3 expression; type: cell-based, human; details: SH-SY5Y cells; hydrogen peroxide alone, 24 hours; normal control 100%
Protocol: as §1, §2, §3

SH-SY5Y cells [5] = experiment: LDH assay, amyloid beta25-35-induced cytotoxicity; type: cell-based, human; details: 20 μM amyloid beta25-35 alone for 24 h, versus control cells (p<0.001)
Tau = experiment: Western blot, amyloid beta25-35-induced hyperphosphorylation of Tau; type: cell-based, human; details: SH-SY5Y cells; 20 μM amyloid beta25-35 alone, compared with control samples (p<0.05 and p<0.01)
mice [6] = experiment: Scopolamine-induced learning and memory deficits, step-through passive avoidance test; type: in vivo; details: scopolamine 0.5 mg/kg, i.p. (p<0.05)
Protocol: (§4) Male ICR mice (4-weeks-old, 18-20 g) were purchased from Koatech Co., Ltd. (Pyongtaek, Korea). Mice were housed 10 per cage, allowed access to water and food ad libitum, and maintained in constant temperature (23±1° C.) and humidity (55±5%) conditions under a 12 hour light/dark cycle (lights on 07:00 to 19:00 h). All experiments were conducted in accord with the NIH Guide for the Care and Use of Laboratory Animals and with the approval of the Institutional Animal Care and Use Committee of Sungkyunkwan University.
Assessment of the training or test trials of the passive avoidance test was carried out in identical illuminated and non-illuminated compartments (12×10×12 cm) containing 2-mm stainless steel rods spaced 0.5 cm apart. A 50 W lamp positioned 1 meter above both chambers illuminated the apparatuses. Briefly, the mice underwent two separate trials, a training trial and a test trial 24 hours later. For the training trial, mice were initially placed in the clear chamber. When they entered the dark chamber, the door closed and a 3-sec electrical foot shock (0.5 mA) was delivered through the stainless steel rods. One hour before each training trial, mice were given sulfretin (0.25, 0.5, or 1 mg/kg, p.o.). After 30 minutes, memory impairment was induced by administering scopolamine (0.5 mg/kg, i.p.). Twenty-four hours after the training trial, mice were placed in the illuminated chamber for the test trial. The time for the mouse to enter the dark compartment after the door opening was defined as latency for both training and test trials. Latencies were recorded for up to 300 s. To avoid a ceiling effect in unimpaired animals, sulfuretin alone was administered 1 hour before the training trial without scopolamine treatment. The intensity of electrical foot shock was set at 0.25 mA for 3 seconds. This lower intensity shock allowed for a behavioral window through which to detect any enhancing effect of sulfuretin.

mice [7] = experiment: Scopolamine-induced cognitive impairment, spontaneous alternation behavior Y-maze test; type: in vivo; details: scopolamine 0.5 mg/kg, i.p., compared with the control group (p<0.05)
Protocol: as §4
The spontaneous alternation behavior was measured by Y-maze which consists of a horizontal maze (30 cm long and 5 cm wide, with walls 12 cm high) with three arms (labeled A, B, and C). The maze floor and walls are constructed of dark grey, polyvinyl plastic. Mice were initially placed within one arm, and the number of alternations (i.e., consecutive entry sequences of ABC, CAB, or BCA but not BAB) and the number of arm entries were manually recorded for each mouse over an 8 minutes period. One hour before each test, the mice were given sulfuretin (0.25, 0.5, or 1 mg/kg, p.o.). After 30 minutes, memory impairment was induced by administering scopolamine (0.5 mg/kg, i.p.). […] The percentage alternation was calculated according to the following equation: Percentage alternation=[(Number of alternations)/(Total arm entries−2)]×100. […]

[8] = MTT (cell viability) test, corticosterone-induced cell death in PC12 cells; type: cell-based; details: rat
Protocol: For the experiment shown in FIG. 3, PC12 cells were cultured in DMEM medium (Hyclone, Thermo, USA) containing 10% FBS, 5% horse serum and antibiotics (Gibco-BRL, USA). […] The concentration of corticosterone was determined to be 400 μM after evaluation of cell viability.

OO [hydrogen peroxide, reference compound]
ROS production (SH-SY5Y cells [1]): ≥ 148%
viability at 400 µM (in vitro; cell viability): ≥ 55%
intracellular [Ca2+] influx (SH-SY5Y cells [2]): ≥ 600 nM
MMP (ΔΨm) (SH-SY5Y cells [3]): ≤ 55%
PARP expression (PARP): ≤ 38%
phospho-p38 expression (phospho-p38): ≥ 133%
phospho-JNK expression (phospho-JNK): ≥ 173%
LDH secretion (SH-SY5Y cells [4]; hydrogen peroxide alone, normal control 11% or less): ≥ 80%
caspase-3 expression (caspase-3): ≤ 40%

NCCc1cc(O)c(O)cc1O [6-hydroxydopamine, reference compound]
viability at 200 µM (in vitro): ≥ 69%

GSNKGAIIGLM [beta-amyloid, amyloid-beta 25-35 fragment, reference compound]
LDH activity (LDH release) (SH-SY5Y cells [5]): increased significantly
phosphorylation of Tau proteins (Tau): rapidly increased
LDH secretion (SH-SY5Y cells [4]; beta-amyloid alone, normal control 12% or less): ≥ 15%

CN1[C@@H]2C[C@@H](OC(=O)[C@H](CO)c3ccccc3)C[C@H]1[C@@H]1O[C@@H]12 [scopolamine, reference compound]
step-through latency time (test trial) (mice [6]): decreased
spontaneous alternation behavior (mice [7]): significantly decreased

C[C@]12C[C@H](O)[C@H]3[C@@H](CCC4=CC(=O)CC[C@@]43C)[C@@H]1CC[C@@H]2C(=O)CO [corticosterone, Corticosterone, reference compound]
viability at 400 µM [8]: ≥ 55%
